Here are results for 2 compounds from patent US20260355142A1, “AMORPHOUS OTE[…] COMPOSITIONS AND USES THEREOF AND DOSAGE REGIMENS FOR OTENAPROXESUL” (ANTIBE THERAPEUTICS INC., priority 2022, published 2026).

For orientation: solubility means the dissolved amount per volume that the medium holds.

Molecules are shown by their SMILES. In brackets after ≈: the same amount, converted by molar mass.

Series [1] can be described thus: Solubility in simulated intestinal fluid. Format: physicochemical. The settings on record: 0.5 wt % SIF. The text has this: 1 compared to crystalline otenaproxesul in simulated intestinal fluid (SIF).
In series [2] the test system is osteoarthritis of the knee. The series is described as follows: Phase 2b study, change in WOMAC subscale scores in osteoarthritis of the knee. In kind it is in vivo, human. The settings on record: for WOMAC pain, stiffness and DPDA subscale scores: Baseline to Day 14. How it is done: This study evaluated the efficacy of a 14-day dosing regimen of crystalline otenaproxesul at doses of 150 mg, 200 mg and 250 mg compared to placebo in reducing osteoarthritis knee pain (a chronic pain condition) as measured by changes in the post-treatment Western Ontario and McMaster Universities Osteoarthritis Index (WOMAC) subscale pain score relative to each patient's pretreatment baseline WOMAC assessment. In patients with bilateral knee osteoarthritis, the most painful knee (index knee) or if in both knees of equal pain, then 1 index knee was noted and has been used for the WOMAC assessments throughout the study. The three doses were selected based on state-of-the-art knowledge of efficacy and safety for otenaproxesul at the time of the trial.
This study was a double-blind, placebo-controlled Phase 2B study that explored 3 different doses (150 mg, 200 mg, and 250 mg) of orally administered crystalline otenaproxesul in male and female patients diagnosed with osteoarthritis of the knee. Patients were randomly assigned in a 2:2:1:1 allocation ratio to otenaproxesul 250 mg, 200 mg, 150 mg, or placebo.
Study visits occurred on Day 1, Day 4, and Day 14 of the 14-day treatment phase and included WOMAC evaluations, blood samples for thromboxane B2 TXB2 and pharmacokinetic (PK) testing. The safety of otenaproxesul was evaluated through monitoring for adverse events (AEs), changes in physical examinations, vital signs measurements, and clinical laboratory evaluations.
The efficacy of treatment with otenaproxesul was assessed by measuring the change in the WOMAC VAS version 3.1 subscale pain, stiffness, and difficulties performing daily activities (DPDA) scores after 14 days relative to each patient's pretreatment baseline WOMAC score.
All patients who received 1 dose of study drug (otenaproxesul or placebo) and had at least 1 post-baseline WOMAC pain subscale score observation were included in the primary population for the analysis of efficacy (modified-intent-to-treat population [mITT]). Patients who met the criteria for the primary efficacy analyses and had no major protocol violations that could have impacted the assessment of efficacy (per protocol population [PP]) were evaluated as a supportive analysis. The primary and secondary endpoints were analyzed using a maximum likelihood mixed model repeated measure (MMRM). The model included treatment, visit, baseline WOMAC pain score, and treatment-by-visit interaction as fixed effects, and patient as a random effect. Dose-response analysis was conducted by using a contrast statement to the least squares (LS) means on Day 14 between the dose levels of otenaproxesul and placebo. For patients who received rescue medication within 12 hours before an efficacy assessment, the assessments at that visit were disregarded and considered missing. Analysis of the WOMAC pain subscale score, including the MMRM analysis and descriptive summary, were also presented by sex (male, female) in a subgroup analysis.

Series [3] can be described thus: H2S release / formulation stability in simulated intestinal fluid. The conditions noted are these: SIF, 1 mg/ml, 37° C., 5% CO2. How it is done:
Assay design: 1 mg of exemplary ASD no. 1 and crystalline otenaproxesul were weighed in separate glass vials. SIF was added to prepare a 1 mg/ml solution which was incubated at 37° C. with 5% CO2. 120 μl was removed at 0.5, 1, 2, 3, 4 and 8 hrs and quenched in DPD (N,N-dimethyl-p-phenylenediamine sulfate) and FeCl3 solutions. A calibration curve was prepared to quantify amount of H2S released. A blank and 10 mM stock was also analyzed. The methylene blue was analyzed using HPLC.

The nature of series [4]: Stability/purity of ASDs by HPLC. In kind it is physicochemical. The settings on record: no storage condition given. How it is done:
The stability of the exemplary amorphous solid dispersions of the application were evaluated using HPLC and are shown in Tables 14 A and B.
HPLC analyses were performed on a Waters 2695 or Agilent 1200, or equivalent, instrument. The column was an ACE-5 C18 150 mm×4.6 mm, 5 μm or equivalent column. The flow rate was 1.0 mL/min, the injection volume was 10 μL, the column temperature was 25° C., the sample temperature was 5° C. and the wavelength for detection was 254 nm. Two eluents were used which were either (1) A: 1.8 g K2HPO4·3H2O dissolved in 1000 ml of water and pH adjusted to 5.5 using orthophosphoric acid and B: acetonitrile; or (2) A: 1.4 g K2HPO4·3H2O dissolved in 1000 ml of water and pH adjusted to 7.0 with 85% phosphoric acid and B: acetonitrile.

A further series concerns PGE2. As to the kind of experiment: Pharmacodynamics in Beagle dogs, plasma PGE2. The conditions noted are these: 15 mg/kg. In kind it is in vivo. How it is done: The pharmacokinetics of five different formulations of otenaproxesul (formerly ATB-346) were evaluated in Beagle dogs. Five groups of dogs (n=3/group) were orally administered their assigned formulations once daily for four days. Blood samples were taken for a full 24-hour PK profile on Day 1 and on Day 4.
Group 1 was administered crystalline otenaproxesul, Group 2 was administered milled crystalline otenaproxesul, Group 3 was administered micro-milled crystalline otenaproxesul, Group 4 was administered exemplary ASD no. 1 (see Example 7A above) and Group 5 was administered exemplary ASD no. 4 (see Example 7A above). Dose administered was 15 mg/kg (human equivalent dose of 525 mg).
Pharmacodynamic assessment of TXB2 and PGE2 plasma concentrations were assessed on: • Day 1, one hour post treatment • Day 1, 12 hours post treatment • Day 4, pre-treatment • Day 4, one hour post treatment • Day 4, 12 hours post treatment.

A short description of series [5]: Phase 1 SAD/MAD clinical trial, safety and tolerability. In kind it is in vivo, human. As to the method:
Otenaproxesul (crystalline form) was orally administered at a range of doses to healthy volunteers, both as a single dose, and as a daily (or twice-daily) dose for 14 days. Each cohort consisted of 8 subjects, with 6 receiving otenaproxesul and 2 receiving placebo. A total of 8 cohorts were studied in the single-dose study (25 mg, 75 mg, 150 mg, 300 mg, 500 mg, 1000 mg, 1500 mg and 2000 mg), and 3 cohorts in the multiple-dose study (250 and 750 once daily, and 750 mg bid (e.g., 1500 mg/day) for 14 days). All adverse events were recorded, and blood samples were drawn prior to and for at least 72 h after drug administration for measurement of otenaproxesul-derived naproxen levels. Routine cardiovascular, renal, hepatic and hematological biomarkers were monitored, along with clinical signs. Multiple ascending dose studies examined otenaproxesul at doses of 250 and 750 mg once daily, and 750 mg twice daily.

Where [6] appears, read: single dose, oral, 25 mg to 2000 mg, crystalline.

For the compound `COc1ccc2cc([C@H](C)C(=O)Oc3ccc(C(N)=S)cc3)ccc2c1` [crystalline otenaproxesul], the solubility at 2 h in series [1] is 51 µg/mL (≈ 140 µM). Further, in series [2], the “WOMAC pain, stiffness and DPDA subscale scores” value was “clinically and statistically significant improvement”. Besides, the H2S release in series [3] (0.5 hrs) was 0.7 µM; in series [3] (1 hr), 0.7 µM; in series [3] (2 hrs), 1.2 µM; in series [3] (3 hrs), 2.2 µM; in series [3] (4 hrs) it was 3.7 µM; in series [3] (8 hrs) it was 8.5 µM. Also, the “ATB-346 API” value in series [4] is given as 99.45%. The RRT-0.84 in series [4] was 0.18%. Also, the “RRT-0.85 ATB-346-Amide” value in series [4] is listed as 0.07%. The compound also came in with an RRT-1.10 in series [4] of 0.25%. The PGE2 inhibition result in the series on PGE2 (Day 1 12-hour) was “not maintained”; in the series on PGE2 (Day 4 pre-treatment), “recovered to a large extent”.
On to `COc1ccc2cc([C@H](C)C(=O)Oc3ccc(C(N)=S)cc3)ccc2c1` [otenaproxesul, (S)-4-carbamothioylphenyl 2-(6-methoxynaphthalen-2-yl) propanoate], for which the “reduction in pain, stiffness and DPDA” value in series [2] (150 mg daily) was “positive reduction in pain, stiffness and DPDA”. The “actual mean change in WOMAC stiffness score, Baseline to Day 14” value in series [2] (150 mg once daily, 95% CI −60.3, −36.6) was −48.4 mm. In addition, in series [2] (150 mg, Day 14), the “decrease in WOMAC DPDA score vs placebo” value is on record as “not statistically significant” and the “decrease in WOMAC pain score vs placebo” value is listed as “not statistically significant”. Further, the “LS mean change in WOMAC stiffness score, Baseline to Day 14” value in series [2] (200 mg once daily, 95% CI −62.6, −46.3) is recorded as −54.4 mm. For the same compound, the “LS mean change in WOMAC pain score, Baseline to Day 14” value in series [2] (200 mg once daily, 95% CI −159.3, −120.6) is listed as −139.9 mm. Further, the “LS mean change in WOMAC DPDA score, Baseline to Day 14” value in series [2] (200 mg once daily, 95% CI −502.9, 374.1 (so in the source)) is listed as −438.5 mm. Further, the “LS mean change in WOMAC stiffness score, Baseline to Day 14” value in series [2] (250 mg once daily, 95% CI −63.5, −47.8) is −55.6 mm. Further, the LS mean change in WOMAC pain score, Baseline to Day 14 in series [2] (250 mg once daily, 95% CI −154.0, −116.6) was -135 mm. Besides, the “LS mean change in WOMAC DPDA score, Baseline to Day 14” value in series [2] (250 mg once daily, 95% CI −475.1, −350.7) is on record as −412.9 mm. In series [2] (250 mg, Day 14), the “patients having at least a 30% reduction in WOMAC pain scores” value was found to be 63.4% and the “patients having at least a 50% reduction in WOMAC pain scores” value is listed as 43.5%. In series [2], the “WOMAC pain, stiffness and DPDA subscale scores” value is “clinically and statistically significant improvement”. Moreover, the “decreases in WOMAC stiffness and DPDA scores” value in series [2] (men, 200 mg, Day 14) is “reached statistical significance”. In series [2] (women, 250 mg and 200 mg, Day 14), the “decreases in WOMAC pain, stiffness and DPDA scores vs placebo” value was “reached statistical significance”. Besides, the tolerability entry in series [5] (all single, once daily administered dose levels) is “very well tolerated and shown to be safe”. Also, in series [5] (setting [6]), the “gastrointestinal, cardiovascular, renal or hematological findings” value is recorded as “nor were there any significant gastrointestinal, cardiovascular renal, or hematological findings” and the serious adverse events entry is listed as “did not produce any serious adverse events”.
